What was measured:
Human IDO1 = Human IDO1 (Homo sapiens (Human), UniProt P14902); experiment: IDO Kynurenine Assay with Human IDO1/HEK293 Cells; type: cell-based; conditions: HEK293 cells with human IDO1; read-out: HEK human IDO-1 (IC50)
Method: IDO Kynurenine Assay with Human IDO1/HEK293 Cells
Human IDO1/HEK293 cells were seeded at 10,000 cells per 50 uL per well with RPMI/phenol red free media contains 10% FBS in a 384-well black wall clear bottom tissue culture plate (Matrix Technologies LLC) 125 nL of certain concentration of compound was then added to each well using ECHO liquid handling systems. The cells were incubated for 20 hours in 37° C. incubator with 5% CO2.
The compound treatments were stopped by adding Trichloroacetic Acid (Sigma-Aldrich) to a final concentration at 0.2%. The cell plate was further incubated at 50° C. for 30 minute. The equal volume supernatant (20 uL) and 0.2% (w/v) Ehrlich reagent (4-dimethylaminobenzaldehyde, Sigma-Aldrich) in glacial acetic acid were mixed in a new clear bottom 384-well plate. This plate was then incubated at room temperature for 30 minute. The absorbance at 490 nm was measured on Envision plate reader.

IDO [1] = molecular target: T1, IDO (Homo sapiens (Human), UniProt P14902); experiment: Kynurenine assay in IFN-γ-stimulated Hela cells; type: cell-based; conditions: 20 h, read-out: Hela Kyurenine (IC50)
Method in brief: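 Hela cells adhered 5-6 h, then received inhibitor (top dose 30 μM, 3-fold dilutions to 1.5 nM) plus 100 ng/mL human IFN-γ to induce IDO, 20 h at 37° C. TCA added, 30 min at 50° C hydrolyses N-formylkynurenine to kynurenine. Supernatant mixed with Ehrlich reagent, 10 min RT, absorbance 490 nm.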

IDO [2] = molecular target: T1, IDO; experiment: LLE_IDO_ABS_DR (IDO assay, method not described)

T1 sequence (P14902 whole entry): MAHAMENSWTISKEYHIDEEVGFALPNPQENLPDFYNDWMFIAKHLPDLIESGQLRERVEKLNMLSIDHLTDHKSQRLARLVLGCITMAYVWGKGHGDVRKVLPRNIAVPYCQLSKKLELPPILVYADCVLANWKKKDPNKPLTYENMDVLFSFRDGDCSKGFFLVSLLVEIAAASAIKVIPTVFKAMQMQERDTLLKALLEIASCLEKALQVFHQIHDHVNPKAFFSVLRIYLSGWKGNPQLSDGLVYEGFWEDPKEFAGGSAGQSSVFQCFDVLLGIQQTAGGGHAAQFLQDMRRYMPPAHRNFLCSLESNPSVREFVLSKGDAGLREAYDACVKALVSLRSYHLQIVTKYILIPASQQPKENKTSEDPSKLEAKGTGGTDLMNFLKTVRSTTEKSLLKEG
Chain of Human IDO1 (P14902 whole entry): as above

IC50 (Human IDO1) [nM]	IC50 (IDO [1]) [nM]	IC50 (IDO [2]) [nM]	SMILES
420	50	330	C#CCOc1cccc(Oc2ccc(-c3ccc(OC)c(C(=O)O)c3)cc2NC(=O)Nc2ccc(C)cc2)c1C [Example 141, 4-methoxy-4′-(2-methyl-3-(prop-2-ynyloxy)phenoxy)-3′-(3-p-tolylureido)biphenyl-3-carboxylic acid]
750	110	320	COc1ccc(-c2ccc(Oc3ccccc3C(C)(C)C)c(NC(=O)Nc3ccc(C)cc3)c2)cc1NS(=O)(=O)C(F)(F)F [Example 7, N-(4′-(2-tert-Butylphenoxy)-4-methoxy-3′-(3-p-tolylureido)biphenyl-3-yl)-1,1,1-trifluoromethanesulfonamide]
1660	690	880	COc1ccc(-c2ccc(Oc3cccc(C(C)(C)C)c3)c(NC(=O)Nc3ccc(C)cc3)c2)cc1C(=O)O [Example 113, 4′-(3-tert-butylphenoxy)-4-methoxy-3′-(3-p-tolylureido)biphenyl-3-carboxylic acid]
30		30	CCCOc1c(CCC)cc(-c2ccccc2-c2nnn[nH]2)cc1NC(=O)Nc1ccc(C)cc1 [Example 16, 1-(4-Propoxy-5-propyl-2′-(1H-tetrazol-5-yl)-[1,1′-biphenyl]-3-yl)-3-(p-tolyl)urea]
90		50	CCCOc1c(NC(=O)Nc2ccc(C)cc2)cc(-c2ccccc2-c2nnn[nH]2)cc1C(CC)CCCc1ccccc1 (stereo not shown) [compound 297]
50		9.83	CCCCCc1cc(-c2ccccc2-c2nnn[nH]2)cc(NC(=O)Nc2ccccc2F)c1OCCC [Example 289]
30		30	CCCOc1c(NC(=O)Nc2ccc(C)cc2)cc(-c2ccccc2-c2nnn[nH]2)cc1C(CC)c1ccccc1 (stereo not shown) [Example 298]
90		50	O=C(Nc1ccc(OC(F)(F)F)cc1)Nc1cc(-c2ccccc2-c2nnn[nH]2)cc(CC2CC2)c1OCCC(F)(F)F [Example 319]
610		90	CCCC(Oc1ccc(-c2ccccc2-c2nnn[nH]2)cc1NC(=O)Nc1ccc(C)cc1)c1ccccc1Cl (stereo not shown) [Example 313]
4.49		3.25	CCCC(CCC)Oc1c(Br)cc(-c2ccccc2-c2nnn[nH]2)cc1NC(=O)Nc1ccccc1F [Example 287]
6.49		5.56	CC/C=C/Cc1cc(-c2ccccc2-c2nnn[nH]2)cc(NC(=O)Nc2ccccc2F)c1OCCC [Example 284]
30		10	O=C(Nc1ccc(OC(F)(F)F)cc1)Nc1cc(-c2ccccc2-c2nnn[nH]2)cc(CC2CC2)c1OCC1CC1 [Example 321]
30		20	C/C=C/Cc1cc(-c2ccccc2-c2nnn[nH]2)cc(NC(=O)Nc2ccc(C)cc2)c1OCCC [Example 19, (E)-1-(5-(But-2-en-1-yl)-4-propoxy-2′-(1H-tetrazol-5-yl)-[1,1′-biphenyl]-3-yl)-3-(p-tolyl)urea]
20		9.95	CCCOc1c(/C=C/C=C(F)F)cc(-c2ccccc2-c2nnn[nH]2)cc1NC(=O)Nc1ccc(C)cc1 [Example 30, (E)-1-(5-(4,4-Difluorobuta-1,3-dien-1-yl)-4-propoxy-2′-(1H-tetrazol-5-yl)-[1,1′-biphenyl]-3-yl)-3-(p-tolyl)urea]
40		40	O=C(Nc1ccc(C2CC2)cc1)Nc1cc(-c2ccccc2-c2nnn[nH]2)cc(CC2CC2)c1OCCC(F)(F)F [Example 316]
60		40	Cc1cccc(NC(=O)Nc2cc(-c3ccccc3-c3nnn[nH]3)cc(CC3CC3)c2Oc2ccccc2)c1 [Example 323]

SMILES	IC50 (Human IDO1) [nM]	IC50 (IDO [1]) [nM]	IC50 (IDO [2]) [nM]
CCCCc1cc(-c2ccccc2-c2nnn[nH]2)cc(NC(=O)Nc2ccc(C)cc2)c1OCCC [Example 22, 1-(5-Butyl-4-propoxy-2′-(1H-tetrazol-5-yl)-[1,1′-biphenyl]-3-yl)-3-(p-tolyl)urea]	5.92		20
